According to patent US20140329753A1, “Angiogenic active lytic peptides” (priority 2013, published 2014):
“Also recorded” adds a separate entry of the source.

Key:
[1] = test system: angiogenesis; assay: Matrigel deposit implant test for angiogenic activity (acceleration or inhibition), FGF1-induced; format: in vivo, mice; set-up: key to top score seen in Matrigel deposits: no + sign would yield a value of 0, as in A in FIG. 13; B in FIG. 13 would yield a score of +++; ++++: 0 to 4 plus (+) scale; settings: for top score seen in Matrigel deposits: 0 to 4 plus (+) scale, only top level scores of the experiment
Description: Matrigel deposits were surgically implanted on both sides of 4 mice per treatment yielding a possible 8 samples per treatment. Matrigel is a polymeric substance that appears to be relatively inert in animals and it can serve as a matrix that allows experimentation in vivo on many different difficult-to-study-processes. Prior to implantation, the Matrigel was allowed to imbibe fibroblast growth factor 1 (FGF1). This protein is a powerful inducer of angiogenesis and its presence guarantees that sufficient activity will be observed within the allotted time period of the experiment. Therefore, any inhibition of angiogenesis is likely to be a real phenomenon as the experiment has been set to heavily favor the angiogenic process. Angiogenesis occurs by day 14 and beginning Day 1 (Day 0=day of implantation), mice were injected IP daily with 20 μg of peptide in 100 μl of normal saline. The animals were sacrificed on Day 14, and each Matrigel deposit divided longitudinally and fixed in 10% buffered formalin. One of the halves of each Matrigel deposit was then sectioned. Read-out for this experiment was via histology, with semi-quantitative/qualitative counting of migration of cells and their subsequent assembly of lumenal structures within the Matrigel. This method allows us to observe the full physiologic spectrum of effects, and was useful in delineating trends. […] In FIG. 13, A represents what a section of a Matrigel gel deposit looks like under the microscope soon after surgical implantation. The sample in B is derived from the control at the conclusion of the experiment. Intense activity is present with numerous cells attaching to the surface of the Matrigel. Cells begin to penetrate the deposit and organize into discrete structures that coalesce to form the beginning of tubes twisting and branching in many directions. These venules eventually connect with the system carrying blood and it is possible to see red cells and lymphocytes within them. This process is called “arborization”, derived from the fact that the angiogenic process most closely resembles the growth of roots and branches of trees. All but two of the peptide treatments looked, more or less, like B (all the peptides of Table 1 were tested). In C, a typical sample from the peptide C-1 (SEQ ID NO: 24) treatment is shown. […] Consequently, there were far fewer cells and cellular structures inside of the Matrigel. […] There were large regions of Matrigel that had no visibly associated structures and few single cells, including on the periphery, while other regions had some limited activity.
This system ranks each sample using a 0 to 4 plus (+) scale. Thus, B in FIG. 13 would yield a score of +++ while no + sign would yield a value of 0, as in A in FIG. 13. In Table 3 the data is modified to a numerical form and plotted averages are shown.

[2] = test system: arthritis; assay: Treatment of a patient with arthritis (x-ray of ankle joints); format: in vivo; settings: 10 mg subcutaneous once a week for one month, then once a month
Procedure: A patient with arthritis was treated by subcutaneous injection of 10 mg once a week for one month and then once a month for maintenance doses. A visible indication of arthritis is calcification of joints.

[3] = test system: Feline Immunodeficiency virus FIV; assay: Peptide treatment of a lion infected with FIV (CD4+/CD8+ cell counts); format: in vivo; settings: weekly 70 mg I.M injections
Description: Nasty is a male lion in North Carolina Zoological Park. He was diagnosed to suffer Feline Immunodeficiency virus FIV. FIV attacks the immune system of cats, much like the human immunodeficiency virus (HIV) attacks the immune system of human beings. FIV infects many cell types in its host, including CD4+ and CD8+T lymphocytes, B lymphocytes, and macrophages. FIV eventually leads to debilitation of the immune system in its feline hosts by the infection and exhaustion of T-helper (CD4+) cells.
Nasty was treated weekly with 70 mg I.M injections of JC15-10N.

[4] = test system: tumors; assay: In vivo anti-tumor activity of injected peptide in animal tumor models
[5] = mice, 20 μg peptide IP daily, Day 14 histology

FAKKFAKFAF [JC15-10C]
angiogenic / anti-angiogenic activity in Matrigel deposits (in words) [1, 5]: inactive

FAKKFAKKFK [JC15-10N]
calcification of the ankle joints [2]: disappeared | absolute CD4+ cell counts [3]: stabilized the CD4+ cell counts | absolute CD8+ cell counts [3]: the cell counts began to rise | angiogenic / anti-angiogenic activity in Matrigel deposits (in words) [1, 5]: possesses anti-angiogenic activity

FAKKFAKKFKKF [JC15-12N]
top score seen in Matrigel deposits [1]: ++++ | angiogenic / anti-angiogenic activity in Matrigel deposits (in words) [1, 5]: levels of activity higher than the control; also recorded: cannot exert an anti-angiogenic effect; also recorded: does not inhibit angiogenesis

FAKKFAKKFKKFAKKFAK [JC15-18N]
angiogenic / anti-angiogenic activity in Matrigel deposits (in words) [1, 5]: levels of activity higher than the control; also recorded: cannot exert an anti-angiogenic effect

FAKKFAKKFKKFAKKFAKFAFAF [JC15]
% Diff. ([1]; difference of mean score from Control (2.50)): 4.00% | angiogenic activity score, Mean ([1]; mean of samples, mice, 20 μg peptide IP daily, Day 14, 0 to 4 plus scale): 2.60 | angiogenic / anti-angiogenic activity in Matrigel deposits (in words) [1, 5]: closer to the control; also recorded: cannot exert an anti-angiogenic effect | angiogenic activity score, Sample 1 ([1]; mice, FGF1-imbibed Matrigel, 20 μg peptide IP daily, Day 14 histology, 0 to 4 plus scale, sample 1): 3 | angiogenic activity score, Sample 2 ([1]; mice, FGF1-imbibed Matrigel, 20 μg peptide IP daily, Day 14 histology, 0 to 4 plus scale, sample 2): 2 | angiogenic activity score, Sample 3 ([1]; mice, FGF1-imbibed Matrigel, 20 μg peptide IP daily, Day 14 histology, 0 to 4 plus scale, sample 3): 3 | angiogenic activity score, Sample 4 ([1]; mice, FGF1-imbibed Matrigel, 20 μg peptide IP daily, Day 14 histology, 0 to 4 plus scale, sample 4): 2 | angiogenic activity score, Sample 5 ([1]; mice, FGF1-imbibed Matrigel, 20 μg peptide IP daily, Day 14 histology, 0 to 4 plus scale, sample 5): 3 | effect on tumors, peptide injected directly into the tumor ([4]; a few injections over a period of several days): tumors are permanently eliminated | effect on tumors, peptide injected in a site removed from the tumor ([4]; systemic activity, several animal tumor models, in some cases little activity): most of the tumors also disappeared

IVRRADRAAVPIVNLKDELL [C-1]
angiogenic / anti-angiogenic activity in Matrigel deposits (in words) [1, 5]: far fewer cellular associations; also recorded: possess anti-angiogenic activity

KKFKKFAKKFAKFAF [JC15-15C]
top score seen in Matrigel deposits [1]: ++++ | angiogenic / anti-angiogenic activity in Matrigel deposits (in words) [1, 5]: levels of activity higher than the control; also recorded: cannot exert an anti-angiogenic effect
